Assay results reported in PubChem BioAssay AID330 (DTP/NCI, 2004).
Values joined by “and” are separate entries in the source; they are usually repeats but may differ in a detail not shown here. Identical values can stand only once. Inconclusive results and toxic doses are left out.

System: P388 leukemia ip, CD2F1 mice, survival T/C
Test: NCI In Vivo Anticancer Drug Screen. Data for tumor model P388 Leukemia (intraperitoneal) in CD2F1 (CDF1) mice
Settings: endpoint: median survival time, higher = longer survival
Method in brief: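 Mice carrying the transplanted tumor received test compound or vehicle. Survival was recorded in each group, and the value is the treated-group measurement divided by that of the vehicle-treated control group.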

[1] = dose: 60.0 mg/kg/injection, schedule: Q01DX005 (ip), vehicle: saline with Tween-80
[2] = dose: 120.0 mg/kg/injection, schedule: Q01DX005 (ip), vehicle: saline with Tween-80
[3] = dose: 240.0 mg/kg/injection, schedule: Q01DX005 (ip), vehicle: saline with Tween-80
[4] = dose: 50.0 mg/kg/injection, schedule: Q01DX005 (ip), vehicle: Klucel (hydroxypropylcellulose) (HPC)
[5] = dose: 100.0 mg/kg/injection, schedule: Q01DX005 (ip), vehicle: Klucel (hydroxypropylcellulose) (HPC)
[6] = dose: 200.0 mg/kg/injection, schedule: Q01DX005 (ip), vehicle: Klucel (hydroxypropylcellulose) (HPC)
[7] = dose: 50.0 mg/kg/injection, schedule: Q01DX009 (ip), vehicle: Klucel (hydroxypropylcellulose) (HPC)
[8] = dose: 100.0 mg/kg/injection, schedule: Q01DX009 (ip), vehicle: Klucel (hydroxypropylcellulose) (HPC)
[9] = dose: 200.0 mg/kg/injection, schedule: Q01DX009 (ip), vehicle: Klucel (hydroxypropylcellulose) (HPC)
[10] = dose: 50.0 mg/kg/injection, schedule: Q01DX005 (ip), vehicle: saline with Tween-80
[11] = dose: 100.0 mg/kg/injection, schedule: Q01DX005 (ip), vehicle: saline with Tween-80
[12] = dose: 200.0 mg/kg/injection, schedule: Q01DX005 (ip), vehicle: saline with Tween-80
[13] = dose: 50.0 mg/kg/injection, schedule: Q01DX009 (ip), vehicle: saline with Tween-80

## NC(=S)N/N=C/c1ccc(O)cn1
dose: 18.8 mg/kg/injection, schedule: Q01DX009 (ip), vehicle: other
  T/C: 152 % of control and 185 % of control
dose: 18.8 mg/kg/injection, schedule: Q01DX009 (ip), vehicle: saline with Tween-80
  T/C: 156 % of control
dose: 25.0 mg/kg/injection, schedule: Q01DX001 (ip), vehicle: Klucel (hydroxypropylcellulose) (HPC)
  T/C: 118 % of control and 119 % of control
dose: 25.0 mg/kg/injection, schedule: Q04DX002 (ip), vehicle: Klucel (hydroxypropylcellulose) (HPC)
  T/C: 113 % of control and 116 % of control
dose: 25.0 mg/kg/injection, schedule: Q04DX003 (ip), vehicle: Klucel (hydroxypropylcellulose) (HPC)
  T/C: 115 % of control
dose: 37.5 mg/kg/injection, schedule: Q01DX009 (ip), vehicle: other
  T/C: 175 % of control and 221 % of control
dose: 37.5 mg/kg/injection, schedule: Q01DX009 (ip), vehicle: saline
  T/C: 172 % of control
dose: 75.0 mg/kg/injection, schedule: Q01DX009 (ip), vehicle: saline with Tween-80
  T/C: 173 % of control
dose: 75.0 mg/kg/injection, schedule: Q01DX009 (ip), vehicle: saline
  T/C: 160 % of control

## O=c1[nH]cnc2cccc(Cl)c12
[1]
  T/C: 90 % of control
[2]
  T/C: 90 % of control
[3]
  T/C: 100 % of control

## O=[Se](O)O
dose: 0.78 mg/kg/injection, schedule: Q01DX005 (ip), vehicle: water
  T/C: 106 % of control and 110 % of control
dose: 1.56 mg/kg/injection, schedule: Q01DX005 (ip), vehicle: water
  T/C: 114 % of control and 119 % of control
dose: 3.12 mg/kg/injection, schedule: Q01DX005 (ip), vehicle: water
  T/C: 114 % of control
dose: 6.25 mg/kg/injection, schedule: Q01DX005 (ip), vehicle: water
  T/C: 117 % of control

## Cc1cc2nc(CN(CCN(Cc3nc4cc(C)c(C)cc4[nH]3)Cc3nc4cc(C)c(C)cc4[nH]3)Cc3nc4cc(C)c(C)cc4[nH]3)[nH]c2cc1C
dose: 12.5 mg/kg/injection, schedule: Q01DX001 (ip), vehicle: saline with Tween-80
  T/C: 106 % of control
dose: 25.0 mg/kg/injection, schedule: Q01DX001 (ip), vehicle: saline with Tween-80
  T/C: 116 % of control
dose: 50.0 mg/kg/injection, schedule: Q01DX001 (ip), vehicle: saline with Tween-80
  T/C: 116 % of control

## CC(Nc1cnccn1)Nc1cnccn1
[4]
  T/C: 102 % of control
[5]
  T/C: 105 % of control
[6]
  T/C: 104 % of control

## CCN(CC)Cc1cc(N=Nc2ccc([N+](=O)[O-])c(OC)c2)c2ccccc2c1O
[7]
  T/C: 99 % of control
[8]
  T/C: 95 % of control
[9]
  T/C: 97 % of control

## CN(C)C(=O)C1CCC1
dose: 100.0 mg/kg/injection, schedule: Q04DX003 (ip), vehicle: saline with Tween-80
  T/C: 95 % of control
dose: 200.0 mg/kg/injection, schedule: Q04DX003 (ip), vehicle: saline with Tween-80
  T/C: 100 % of control
dose: 400.0 mg/kg/injection, schedule: Q04DX003 (ip), vehicle: saline with Tween-80
  T/C: 100 % of control

## COc1ccc(C(Cl)c2ccc(OC)c(OC)c2)cc1OC
dose: 25.0 mg/kg/injection, schedule: Q01DX009 (ip), vehicle: other
  T/C: 100 % of control
dose: 50.0 mg/kg/injection, schedule: Q01DX009 (ip), vehicle: other
  T/C: 90 % of control
dose: 100.0 mg/kg/injection, schedule: Q01DX009 (ip), vehicle: other
  T/C: 97 % of control

## COc1cc(CC2C(Cc3ccc4c(c3)OCO4)COC2CO)cc(OC)c1OC (configuration not stated)
dose: 6.25 mg/kg/injection, schedule: Q04DX002 (ip), vehicle: acetone
  T/C: 95 % of control
dose: 12.5 mg/kg/injection, schedule: Q04DX002 (ip), vehicle: acetone
  T/C: 102 % of control
dose: 25.0 mg/kg/injection, schedule: Q04DX002 (ip), vehicle: acetone
  T/C: 98 % of control

## Cc1ncc(CO)n1Cc1ccc(Cl)cc1
[7]
  T/C: 104 % of control
[8]
  T/C: 99 % of control
[9]
  T/C: 94 % of control

## COc1c2occc2c(OC(C)C(=O)O)c2c(O)cc(=O)oc12 (configuration not stated)
[10]
  T/C: 95 % of control
[11]
  T/C: 101 % of control
[12]
  T/C: 95 % of control

## Cc1nn(C(=O)c2ccncc2)c(C)c1N=Nc1ccc(Cl)cc1
dose: 50.0 mg/kg/injection, schedule: Q01DX009 (ip), vehicle: saline
  T/C: 99 % of control
dose: 100.0 mg/kg/injection, schedule: Q01DX009 (ip), vehicle: saline
  T/C: 91 % of control
dose: 200.0 mg/kg/injection, schedule: Q01DX009 (ip), vehicle: saline
  T/C: 90 % of control

## O=C(O)c1c(O)ccc(O)c1C(=O)O
[1]
  T/C: 101 % of control
[2]
  T/C: 92 % of control
[3]
  T/C: 97 % of control

## C/C(CCCC(C)(C)C(=O)O)=N/Nc1ccc([N+](=O)[O-])cc1[N+](=O)[O-]
dose: 12.5 mg/kg/injection, schedule: Q01DX009 (ip), vehicle: saline with Tween-80
  T/C: 104 % of control
dose: 25.0 mg/kg/injection, schedule: Q01DX009 (ip), vehicle: saline with Tween-80
  T/C: 100 % of control
[13]
  T/C: 92 % of control and 95 % of control

## COC(=O)c1cc(Cl)ccc1OS(N)(=O)=O
dose: 60.0 mg/kg/injection, schedule: Q01DX005 (ip), vehicle: Klucel (hydroxypropylcellulose) (HPC)
  T/C: 103 % of control
dose: 120.0 mg/kg/injection, schedule: Q01DX005 (ip), vehicle: Klucel (hydroxypropylcellulose) (HPC)
  T/C: 102 % of control
dose: 240.0 mg/kg/injection, schedule: Q01DX005 (ip), vehicle: Klucel (hydroxypropylcellulose) (HPC)
  T/C: 97 % of control

## COc1cc(NC(C)CCCN)c2ncc(Br)cc2c1 (configuration not stated)
dose: 6.25 mg/kg/injection, schedule: Q01DX005 (ip), vehicle: saline
  T/C: 95 % of control
dose: 12.5 mg/kg/injection, schedule: Q01DX005 (ip), vehicle: saline
  T/C: 91 % of control

## C=CC(=O)NC(CSCc1ccccc1)C(=O)O (configuration not stated)
[4]
  T/C: 98 % of control
[5]
  T/C: 109 % of control
[6]
  T/C: 98 % of control

## O=c1c2ccccc2sc2c1c(N(CCO)CCO)cc1ccccc12
dose: 25.0 mg/kg/injection, schedule: Q01DX005 (ip), vehicle: distilled water + Tween-80
  T/C: 102 % of control
dose: 50.0 mg/kg/injection, schedule: Q01DX005 (ip), vehicle: distilled water + Tween-80
  T/C: 97 % of control
dose: 100.0 mg/kg/injection, schedule: Q01DX005 (ip), vehicle: distilled water + Tween-80
  T/C: 92 % of control

## COC(=O)C1(CC(=O)c2ccncc2)NC(=S)NC(=O)C1C#N (configuration not stated)
dose: 60.0 mg/kg/injection, schedule: Q01DX005 (ip), vehicle: saline
  T/C: 99 % of control
dose: 120.0 mg/kg/injection, schedule: Q01DX005 (ip), vehicle: saline
  T/C: 101 % of control
dose: 240.0 mg/kg/injection, schedule: Q01DX005 (ip), vehicle: saline
  T/C: 94 % of control

## Nc1ccccc1C(=O)N/N=C/c1cccnc1
[4]
  T/C: 100 % of control
[5]
  T/C: 98 % of control
[6]
  T/C: 98 % of control

## CCc1ccc2ccc3ccc(CC)nc3c2n1
[1]
  T/C: 106 % of control
[2]
  T/C: 102 % of control
[3]
  T/C: 99 % of control

## C[n+]1c(/C=C\c2ccc(Cl)cc2)ccc2ccccc21
dose: 1.56 mg/kg/injection, schedule: Q01DX009 (ip), vehicle: saline with Tween-80
  T/C: 100 % of control
dose: 3.13 mg/kg/injection, schedule: Q01DX009 (ip), vehicle: saline with Tween-80
  T/C: 113 % of control

## C[CH2][Ge]([CH2]C)[CH2]/C=C\[CH2][Ge]([CH2]C)[CH2]C
[13]
  T/C: 94 % of control
dose: 100.0 mg/kg/injection, schedule: Q01DX009 (ip), vehicle: saline with Tween-80
  T/C: 117 % of control

## CCCCOC(=O)NC(=O)c1cc2ccc(N(CC)CC)cc2oc1=O
[1]
  T/C: 95 % of control
[2]
  T/C: 87 % of control
[3]
  T/C: 87 % of control

## CN(C)CCCNc1cc(/C=C/c2ccc([N+](=O)[O-])cc2)nc2ccccc12
[10]
  T/C: 106 % of control
[11]
  T/C: 106 % of control
[12]
  T/C: 106 % of control

## COc1cccc2cc3c(NCCCN(C)C)nnc(NCCCN(C)C)c3cc12
dose: 7.5 mg/kg/injection, schedule: Q01DX005 (ip), vehicle: saline
  T/C: 105 % of control
dose: 15.0 mg/kg/injection, schedule: Q01DX005 (ip), vehicle: saline
  T/C: 98 % of control

## COC(=O)C1NC(C)(C(=O)OC)C2C(=O)NC(=O)C12 (configuration not stated)
dose: 100.0 mg/kg/injection, schedule: Q04DX002 (ip), vehicle: Klucel (hydroxypropylcellulose) (HPC)
  T/C: 95 % of control
dose: 200.0 mg/kg/injection, schedule: Q04DX002 (ip), vehicle: Klucel (hydroxypropylcellulose) (HPC)
  T/C: 93 % of control
dose: 400.0 mg/kg/injection, schedule: Q04DX002 (ip), vehicle: Klucel (hydroxypropylcellulose) (HPC)
  T/C: 88 % of control

## C/C(N=NC(=S)N1CCN(c2ccccc2)CC1)=C1\C=CC=CN1O
[10]
  T/C: 103 % of control
[11]
  T/C: 101 % of control
[12]
  T/C: 103 % of control
